# From ChEMBL document CHEMBL1201862, “PubChem BioAssay data set” (2004)
#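 Each compound was tested at five concentrations against cells in 96-well plates for 48 hours. Here, GI50 denotes the concentration required for 50% inhibition of growth.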 Activity calls are given as the source filed them. Cut-off read from the data, not from the text of the source: active = GI50 up to about 1.1 µM and inactive = higher.
# What was measured:
# Test in all cases: NCI anticancer screen, dose series, 48 h
# CCRF-CEM = system: CCRF-CEM
# IGROV-1 = system: IGROV-1
# OVCAR-8 = system: OVCAR-8
# HL-60 = system: HL-60
# LXFL 529 = system: LXFL 529
# HCT-15 = system: HCT-15
# CAKI-1 = system: CAKI-1
# NCI-H23 = system: NCI-H23
# U-251 = system: U-251
# KM-20L2 = system: KM-20L2
# XF498 = system: XF498
# SNB-75 = system: SNB-75
# HOP-92 = system: HOP-92
# DMS-273 = system: DMS-273
# SF-268 = system: SF-268
# KM12 = system: KM12
# SK-MEL-5 = system: SK-MEL-5
# SNB-19 = system: SNB-19
# A498 = system: A498
# SF-295 = system: SF-295
# K562 = system: K562
# UO-31 = system: UO-31
# SW-620 = system: SW-620
# NCI-H460 = system: NCI-H460
# OVCAR-5 = system: OVCAR-5
# LOX IMVI = system: LOX IMVI
# HCC 2998 = system: HCC 2998
# TK-10 = system: TK-10
# MOLT-4 = system: MOLT-4
# Malme-3M = system: Malme-3M
# OVCAR-3 = system: OVCAR-3
# RPMI-8226 = system: RPMI-8226
# COLO 205 = system: COLO 205
# NCI-H522 = system: NCI-H522
# DLD-1 = system: DLD-1
# SK-MEL-2 = system: SK-MEL-2
# DMS-114 = system: DMS-114
# SK-OV-3 = system: SK-OV-3
# EKVX = system: EKVX
# UACC-62 = system: UACC-62
# UACC-257 = system: UACC-257
# SF-539 = system: SF-539
# HT-29 = system: HT-29
# RXF 393 = system: RXF 393
# HOP-62 = system: HOP-62
# ACHN = system: ACHN
# A549 = system: A549
# SK-MEL-28 = system: SK-MEL-28
# M14 = system: M14
# HCT-116 = system: HCT-116
# HOP-18 = system: HOP-18
# SNB-78 = system: SNB-78
# OVCAR-4 = system: OVCAR-4
# 786-0 = system: 786-0
# SR = system: SR
# SN12C = system: SN12C
# M19-MEL = system: M19-MEL
# NCI-H226 = system: NCI-H226
# RXF 631 = system: RXF 631
smiles,measurement,setting,value
N=c1n(CC(=O)NC23CC4CC(CC(C4)C2)C3)c2ccccc2n1CC(=O)NC12CC3CC(CC(C3)C1)C2,GI50,CCRF-CEM,2.8 µM (inactive)
same,GI50,IGROV-1,1.56 µM (inactive)
same,GI50,OVCAR-8,1.68 µM (inactive)
same,GI50,HL-60,2.67 µM (inactive)
same,GI50,LXFL 529,2.04 µM (inactive)
same,GI50,HCT-15,1900 nM
same,GI50,CAKI-1,12 µM (inactive)
same,GI50,NCI-H23,1.74 µM (inactive)
same,GI50,U-251,1.66 µM (inactive)
same,GI50,KM-20L2,1.81 µM (inactive)
same,GI50,XF498,1.52 µM (inactive)
same,GI50,SNB-75,2.29 µM (inactive)
same,GI50,HOP-92,1.65 µM (inactive)
same,GI50,DMS-273,1.83 µM (inactive)
same,GI50,SF-268,1.95 µM (inactive)
same,GI50,KM12,1.61 µM (inactive)
same,GI50,SK-MEL-5,1.82 µM (inactive)
same,GI50,SNB-19,1.66 µM (inactive)
same,GI50,A498,1.7 µM (inactive)
same,GI50,SF-295,2.06 µM (inactive)
same,GI50,K562,2.82 µM (inactive)
same,GI50,UO-31,13.2 µM (inactive)
same,GI50,SW-620,1.63 µM (inactive)
same,GI50,NCI-H460,1.78 µM (inactive)
same,GI50,OVCAR-5,1.69 µM (inactive)
same,GI50,LOX IMVI,1.63 µM (inactive)
same,GI50,HCC 2998,1.36 µM (inactive)
same,GI50,TK-10,1.66 µM (inactive)
same,GI50,MOLT-4,2.64 µM (inactive)
same,GI50,Malme-3M,1.67 µM (inactive)
same,GI50,OVCAR-3,1.88 µM (inactive)
same,GI50,RPMI-8226,2.21 µM (inactive)
same,GI50,COLO 205,1.89 µM (inactive)
same,GI50,NCI-H522,1.9 µM (inactive)
same,GI50,DLD-1,1.9 µM (inactive)
same,GI50,SK-MEL-2,17.2 µM (inactive)
same,GI50,DMS-114,1.93 µM (inactive)
same,GI50,SK-OV-3,15.7 µM (inactive)
same,GI50,EKVX,2.26 µM (inactive)
same,GI50,UACC-62,1.96 µM (inactive)
same,GI50,UACC-257,1.73 µM (inactive)
same,GI50,SF-539,1.92 µM (inactive)
same,GI50,HT-29,1.8 µM (inactive)
same,GI50,RXF 393,1.75 µM (inactive)
same,GI50,HOP-62,2.02 µM (inactive)
same,GI50,ACHN,2 µM (inactive)
same,GI50,A549,2.07 µM (inactive)
same,GI50,SK-MEL-28,1.79 µM (inactive)
same,GI50,M14,1.96 µM (inactive)
same,GI50,HCT-116,2.03 µM (inactive)
same,GI50,HOP-18,2.03 µM (inactive)
same,GI50,SNB-78,2.91 µM (inactive)
same,GI50,OVCAR-4,1.79 µM (inactive)
same,GI50,786-0,1.8 µM (inactive)
same,GI50,SR,1.87 µM (inactive)
same,GI50,SN12C,1.87 µM (inactive)
same,GI50,M19-MEL,1.72 µM (inactive)
CC1=C(/C=C/C(C)=C/C=C/C(C)=C/C=C/C=C(C)/C=C/C=C(C)/C=C/C=C(C)/C=C/C=C(\C)C(=O)O)C(C)(C)CCC1,GI50,CCRF-CEM,> 100 µM (inactive)
same,GI50,IGROV-1,> 100 µM (inactive)
same,GI50,OVCAR-8,> 100 µM (inactive)
same,GI50,LXFL 529,> 100 µM (inactive)
same,GI50,NCI-H226,> 100 µM (inactive)
same,GI50,HCT-15,> 100000 nM
same,GI50,CAKI-1,> 100 µM (inactive)
same,GI50,NCI-H23,> 100 µM (inactive)
same,GI50,U-251,> 100 µM (inactive)
same,GI50,KM-20L2,> 100 µM (inactive)
same,GI50,SNB-75,69 µM (inactive)
same,GI50,DMS-273,> 100 µM (inactive)
same,GI50,SF-268,> 100 µM (inactive)
same,GI50,KM12,> 100 µM (inactive)
same,GI50,SK-MEL-5,> 100 µM (inactive)
same,GI50,SNB-19,> 100 µM (inactive)
same,GI50,A498,> 100 µM (inactive)
same,GI50,SF-295,> 100 µM (inactive)
same,GI50,K562,> 100 µM (inactive)
same,GI50,UO-31,> 100 µM (inactive)
same,GI50,SW-620,> 100 µM (inactive)
same,GI50,NCI-H460,> 100 µM (inactive)
same,GI50,OVCAR-5,> 100 µM (inactive)
same,GI50,TK-10,> 100 µM (inactive)
same,GI50,MOLT-4,> 100 µM (inactive)
same,GI50,Malme-3M,> 100 µM (inactive)
same,GI50,OVCAR-3,> 100 µM (inactive)
same,GI50,RPMI-8226,> 100 µM (inactive)
same,GI50,COLO 205,> 100 µM (inactive)
same,GI50,NCI-H522,> 100 µM (inactive)
same,GI50,DLD-1,> 100 µM (inactive)
same,GI50,SK-MEL-2,> 100 µM (inactive)
same,GI50,DMS-114,> 100 µM (inactive)
same,GI50,SK-OV-3,> 100 µM (inactive)
same,GI50,EKVX,> 100 µM (inactive)
same,GI50,UACC-62,> 100 µM (inactive)
same,GI50,UACC-257,> 100 µM (inactive)
same,GI50,SF-539,> 100 µM (inactive)
same,GI50,HT-29,> 100 µM (inactive)
same,GI50,RXF 393,> 100 µM (inactive)
same,GI50,HOP-62,> 100 µM (inactive)
same,GI50,ACHN,> 100 µM (inactive)
same,GI50,A549,> 100 µM (inactive)
same,GI50,SK-MEL-28,> 100 µM (inactive)
same,GI50,M14,> 100 µM (inactive)
same,GI50,HCT-116,> 100 µM (inactive)
same,GI50,HOP-18,< 0.01 µM (active)
same,GI50,SNB-78,> 100 µM (inactive)
same,GI50,OVCAR-4,> 100 µM (inactive)
same,GI50,786-0,> 100 µM (inactive)
same,GI50,RXF 631,> 100 µM (inactive)
same,GI50,SN12C,> 100 µM (inactive)
